Measured values as given in patent publication US6610681B1, “Neurotherapeutic clavulanate composition and method” (Revaax Pharmaceuticals, LLC, priority 1999, dated 2003).
Where two headings read alike, the source gives them in different places.

Experiments:
[1] = test system: male Wistar rats; assay: elevated plus-maze; assay type: in vivo, rat
Source text: The elevated plus-maze was developed for screening anxiolytic and anxiogenic drug effects in the rat (Pellow et al., 1985). The method has been validated behaviorally, physiologically, and pharmacologically. The plus-maze consists of two open arms and two enclosed arms. […] Conversely, anxiogenic compounds like yohimbin or amphetamines reduce open arm entries and time spent in the open arms.
Male Wistar rats weighing 250-300 g were group housed in a normal 12:12 light-dark cycle with light on at 0800 hr and provided food and water ad libitum. The plus-maze consisted of two open arms, 50 cm long, 10 cm wide, […]. The two closed arms had the same dimensions but included a roof. The Plexiglas for the closed arms was painted black. Each pair of arms was arranged opposite to each other to form the plus-maze. The maze was elevated to a height of 50 cm. Eighteen animals were tested in the plus-maze 90 min following the IP injection of 1.0 μg/kg CLAV, 50 or vehicle control in a volume of ca. 0.3 ml. The order of treatments was counter balanced with at least 48 hrs between injections. At the start of the experiment, the animal was placed at the end of one of the open arms. Over a five min observation period, animals were scored for the latency to enter the closed arm, time spent in the closed arm and the number of open arm entries following the first occupation of the closed arm. The study produced tables of repeated measures. The data between treatments were compared with a two-way, repeated measures ANOVA followed by Bonferroni post hoc tests.
Chlordiazepoxide (Librium®) is a commonly prescribed anxiolytic that has been thoroughly characterized in preclinical studies. The effective anxiolytic dose in the plus-maze is 10-25 mg/kg (Lister 1987; File and Aranko 1988; Shumsky and Lucki 1994). […] However, it was discovered animals develop a tolerance to the motor depression with repeated daily administration of CDP for several days (Shumsky and Lucki 1994). […] While CLAV has no effect on motor activity it was necessary to treat an equal number of rats with daily injections of CLAV (100 ng/kg) to insure a balanced experimental design. In addition there was a third group of rats (n=6) receiving daily injections of saline vehicle. The study reported in Section II tested CLAV at 1 μg/kg in the plus-maze. […] For this reason CLAV was tested at 100 ng/kg in these studies.

[2] = approximately 7-10 mg/kg/day, intravenous with ticarcillin; cited from earlier work
[3] = test system: stress-induced release of cortisol; assay: novelty test, stress-induced release of cortisol; assay type: in vivo, hamster; conditions: 10 μg/kg IP
Experimental: The simple procedure of placing an adult male hamster into a novel environment for 5 min causes a significant, predictable increase in blood levels of cortisol (Weinberg and Wong 1986). This novelty test was used to assess the effects of CLAV on stress-induced release of cortisol. Two groups of male hamsters were treated IP with either CLAV (10 μg/kg, n=6), or saline vehicle (n=4). A third group (n=4) received no treatment or isolation stress and served as a control for basal levels of cortisol. Sixty min after treatment animals were taken from their home cage and placed into a novel cage for 5 min. Afterwards animals were sacrificed by decapitation and trunk blood collected for radioimmunoassay of cortisol. All animals were tested under reverse light:dark conditions four hrs into the dark cycle. Data were compared with a one-way ANOVA followed by Fisher PLSD post hoc tests.

[4] = test system: rats; assay: Morris water maze, spatial navigation; assay type: in vivo, rat
Source text: The Morris water maze was developed to test spatial memory (Morris, 1984). The pool is divided into quadrants usually designated North, South, East and West. The water in the pool is made opaque with milk powder. Hidden just beneath the surface in one of the quadrants is a platform that serves as a escape route for rodents placed into the pool. An animal is placed some where in the pool from a variety of different start points and is timed for latency to find the platform, percent time spent in each quadrant, distance traveled and swimming speed. The animals have no visual or spatial cues in the pool and must rely on extra-maze cues, i.e., objects set up outside the pool that can be seen by the swimming animal. Through a series of trials a rat develops “place learning” or knowledge about the position of the platform based upon the extra-maze cues. The platform can be moved to a different quadrant each day combining spatial memory with working memory. This paradigm involves extinction of the prior memory and resolution of a new spatial problem.
The water maze consisted of a black plastic circular pool ca. 150 cm in diameter and 54 cm in height filled to a level of 35 cm with water made opaque with powdered milk. The pool was divided into four quadrants with a platform 10 cm in diameter submerged 2 cm below the surface in the northwest quadrant. The water was maintained at a temperature of 25° C. Around the pool were several visual cues. Above the pool was a video camera for tracking the movement of the experimental animal. The data collection was completely automated using the software developed by HVS Image (Hampton, UK). Before testing, rats were familiarized with the pool and platform placed in the northwest quadrant. Each day for 4 consecutive days, animals were placed into pool at random sites and given two min to find the platform. […] Following these familiarization trials, animals were tested for spatial navigation. The first day of testing began with the platform in the expected northwest quadrant. All behavior was videotaped for a two min observation period. After testing the animal were dried off and placed back into their home cage. On each subsequent day the platform was moved to a new quadrant and the rat started at different positions. The rat was always placed into the pool facing the sidewall. The start positions relative to the platform were different for each of the four trials; however, the platform was always in the same relative position in each quadrant. It was positioned 20 cm in from the side of the pool and in the left corner from the center facing out. The latency to find the hidden platform, path length, swim rate, and quadrant times between CLAV and vehicle treated animals were compared with a two-way, repeated measures ANOVA followed by Bonferroni post hoc tests.

[5] = test system: gram negative beta-lactamase enzymes; conditions: cited from earlier work
[6] = test system: rats; assay: Morris water maze, cue navigation; assay type: in vivo, rat
Experimental: On the day following the last day (Day 4) of spatial navigation, animals were tested for cue navigation. In these tests, the platform was raised above water level. One hr before testing animals were treated with CLAV or saline vehicle. The same animals treated with CLAV during spatial navigation were treated with CLAV for cue navigation. Animals were run through a series of two min trials with 45 min between trials. At each trial, the platform was moved to a different quadrant. The cue navigation study was identical to the spatial navigation except the platform was visible and the testing was done over five consecutive trials done on a single day. Animals were scored for latency to find the platform, percent time spent in each quadrant, path distance and swim speed for all testing periods.

[7] = in vivo, cited from earlier work
[8] = 1.0 μg/kg IP, 90 min, vs vehicle
[9] = daily IP 7 days, CLAV 100 ng/kg, CDP 10 mg/kg, vs vehicle

## O=C(O)[C@H]1/C(=C/CO)O[C@@H]2CC(=O)N21 [CLAV, clavulanic acid]
[1]; 1 μg/kg
  activity in the plus-maze (summary): anxiolytic activity
[1]; [8]
  latency to enter the dark (closed arm): stayed in the starting open light position longer
  open arm entries: increased movement into the lighted open arms
  time spent in the open arm: significantly increased
[1]; daily IP 7 days, CLAV 100 ng/kg, CDP 10 mg/kg
  open arm entries: no significant difference between treatments
[1]; [9]
  latency to enter the dark closed arms: significantly greater
  time spent exposed to light in the open arms: significantly greater
[2]
  adverse reactions or contraindications: no reported adverse reactions or contraindications
[3]
  effect on stress release of cortisol (summary): no ostensible effect on the release of cortisol
[3]; 60 min, novel cage 5 min
  blood level of cortisol vs untreated, non-stressed control: more than twice the blood level of cortisol
[4]; 1.0 μg/kg, Day 1, vs vehicle
  path length to find the platform: traveled a much shorter distance
[4]; 1.0 μg/kg, any quadrant on any day
  percentage of time spent in each quadrant vs vehicle: no significant difference between treatments
[4]; 1.0 μg/kg, one hr before testing, 4 days
  latency to find the platform, main effect: no main effect for drug treatment
[4]; 1.0 μg/kg, trend towards significance
  latency to find the platform on Days 1 and 4: shorter latencies
[4]; spatial and cue navigation
  learning and memory (summary): do not show any loss in learning and memory
[5]
  inhibition of gram negative beta-lactamase enzymes: 15 to 34 nM
[6]; any quadrant on any trial
  percentage of time spent in each quadrant vs vehicle: no significant difference between treatments
[6]; visible platform, five trials
  latency to find the platform: no main effect for treatments
[6]; vs vehicle
  distance traveled to find the platform: not significantly different
[7]; po
  oral activity and stability: orally active and stable
[7]
  CSF/plasma ratio: 0.25
  elimination half-life: just under two hours
  passage of the blood-brain barrier: readily passes the blood-brain barrier
[7]; listed as Clavulanic acid
  CSF/plasma ratio: around 0.25

## CO[C@@]1(NC(=O)C(C(=O)O)c2ccc(O)cc2)C(=O)N2C(C(=O)O)=C(CSc3nnnn3C)CO[C@@H]21 (stereo partly drawn) [Moxalactam, 7-β-[2-carboxy-2-(4-hydroxyphenyl)acetamido]-7α-methoxy-3-[[(1-methyl-1H-tetrazol-5-yl)thio]methyl]-1-oxa-1-dethia-3-cephem-4-carboxylic acid]
[1]; i.p. at 50 micrograms/kg, rats
  anxiolytic action: acts as an anxiolytic in rats
[4]; i.p. at 50 micrograms/kg, rats
  spatial learning: enhances spatial learning in rats
